Laboratory results published in patent US20100298141A1, “SUBSTITUTED PYRIDINE N-OXIDE HERBICIDES” (E. I. DU PONT DE NEMOURS AND COMPANY, priority 2007, published 2010).

Experiments:
Assay in all cases: Test F preemergence test
kochia = type: in vivo, Kochia scoparia; conditions: scale 0 to 100; for Kochia plant response rating: 125 g ai/ha
Method in brief: (§1)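 Preemergence application to planted seeds, or postemergence to sugarcane plants; compound in non-phytotoxic solvent mix plus surfactant. Greenhouse, 14-21 days. Visual rating vs. controls.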

prickly sida = type: in vivo, Sida spinosa; conditions: scale 0 to 100
Method in brief: as §1

purple nutsedge = type: in vivo, Cyperus rotundus; conditions: scale 0 to 100
Method in brief: as §1

quackgrass = type: in vivo, Elytrigia repens; conditions: scale 0 to 100
Method in brief: as §1

naked crabgrass = type: in vivo, Digitaria nuda; conditions: scale 0 to 100
Method in brief: as §1

common groundsel = type: in vivo, Senecio vulgaris; conditions: scale 0 to 100
Method in brief: as §1

guineagrass = type: in vivo, Panicum maximum; conditions: scale 0 to 100
Method in brief: as §1

Italian ryegrass = type: in vivo, Lolium multiflorum; conditions: scale 0 to 100
Method in brief: as §1

bermudagrass = type: in vivo, Cynodon dactylon; conditions: scale 0 to 100
Method in brief: as §1

large crabgrass = type: in vivo, Digitaria sanguinalis; conditions: scale 0 to 100
Method in brief: as §1

southern sandbur = type: in vivo, Cenchrus echinatus; conditions: scale 0 to 100
Method in brief: as §1

common purslane = type: in vivo, Portulaca oleracea; conditions: scale 0 to 100
Method in brief: as §1

goosegrass = type: in vivo, Eleusine indica; conditions: scale 0 to 100
Method in brief: as §1

johnsongrass = type: in vivo, Sorghum halepense; conditions: scale 0 to 100
Method in brief: as §1

Surinam grass = type: in vivo, Brachiaria decumbens; conditions: scale 0 to 100
Method in brief: as §1

pitted morningglory = type: in vivo, Ipomoea lacunosa; conditions: scale 0 to 100
Method in brief: as §1

common ragweed = type: in vivo, Ambrosia elation; conditions: scale 0 to 100
Method in brief: as §1

Cc1cc[n+]([O-])c(S(=O)(=O)C(C)c2c(C(F)(F)F)nn(C)c2OC(F)F)c1 (centres unmarked) [Compound 11]
Kochia plant response rating (kochia; preemergence): 100
Plant response rating, Kochia (kochia; Preemergence, 16 g ai/ha): 0
Plant response rating, Kochia (kochia; Preemergence, 31 g ai/ha): 100
Prickly Sida plant response rating (prickly sida; 62 g ai/ha, Preemergence): 95
Prickly Sida plant response rating (prickly sida; 125 g ai/ha, preemergence): 100
Plant response rating, Prickly Sida (prickly sida; Preemergence, 16 g ai/ha): 0
Plant response rating, Prickly Sida (prickly sida; Preemergence, 31 g ai/ha): 70
Purple Nutsedge plant response rating (purple nutsedge; 62 g ai/ha, Preemergence): 100
Purple Nutsedge plant response rating (purple nutsedge; 125 g ai/ha, preemergence): 100
Plant response rating, Purple Nutsedge (purple nutsedge; Preemergence, 16 g ai/ha): 25
Plant response rating, Purple Nutsedge (purple nutsedge; Preemergence, 31 g ai/ha): 65
Quackgrass plant response rating (quackgrass; 62 g ai/ha, Preemergence): 75
Quackgrass plant response rating (quackgrass; 125 g ai/ha, preemergence): 90
Plant response rating, Quackgrass (quackgrass; Preemergence, 16 g ai/ha): 0
Plant response rating, Quackgrass (quackgrass; Preemergence, 31 g ai/ha): 60
Crabgrass, Naked plant response rating (naked crabgrass; 62 g ai/ha, Preemergence): 98
Crabgrass, Naked plant response rating (naked crabgrass; 125 g ai/ha, preemergence): 100
Plant response rating, Crabgrass, Naked (naked crabgrass; Preemergence, 16 g ai/ha): 90
Plant response rating, Crabgrass, Naked (naked crabgrass; Preemergence, 31 g ai/ha): 98
Groundsel plant response rating (common groundsel; 62 g ai/ha, Preemergence): 95
Groundsel plant response rating (common groundsel; 125 g ai/ha, preemergence): 98
Plant response rating, Groundsel (common groundsel; Preemergence, 16 g ai/ha): 0
Plant response rating, Groundsel (common groundsel; Preemergence, 31 g ai/ha): 25
Guineagrass plant response rating (guineagrass; 62 g ai/ha, Preemergence): 100
Guineagrass plant response rating (guineagrass; 125 g ai/ha, preemergence): 100
Plant response rating, Guineagrass (guineagrass; Preemergence, 16 g ai/ha): 70
Plant response rating, Guineagrass (guineagrass; Preemergence, 31 g ai/ha): 90
Ryegrass, Italian plant response rating (Italian ryegrass; 62 g ai/ha, Preemergence): 75
Ryegrass, Italian plant response rating (Italian ryegrass; 125 g ai/ha, preemergence): 95
Plant response rating, Ryegrass, Italian (Italian ryegrass; Preemergence, 16 g ai/ha): 35
Plant response rating, Ryegrass, Italian (Italian ryegrass; Preemergence, 31 g ai/ha): 50
Bermudagrass plant response rating (bermudagrass; 62 g ai/ha, Preemergence): 98
Bermudagrass plant response rating (bermudagrass; 125 g ai/ha, preemergence): 100
Plant response rating, Bermudagrass (bermudagrass; Preemergence, 16 g ai/ha): 35
Plant response rating, Bermudagrass (bermudagrass; Preemergence, 31 g ai/ha): 70
Crabgrass, Large plant response rating (large crabgrass; 62 g ai/ha, Preemergence): 98
Crabgrass, Large plant response rating (large crabgrass; 125 g ai/ha, preemergence): 100
Plant response rating, Crabgrass, Large (large crabgrass; Preemergence, 16 g ai/ha): 60
Plant response rating, Crabgrass, Large (large crabgrass; Preemergence, 31 g ai/ha): 80
Sandbur plant response rating (southern sandbur; 62 g ai/ha, Preemergence): 100
Sandbur plant response rating (southern sandbur; 125 g ai/ha, preemergence): 100
Plant response rating, Sandbur (southern sandbur; Preemergence, 31 g ai/ha): 95
Purslane plant response rating (common purslane; 62 g ai/ha, Preemergence): 70
Purslane plant response rating (common purslane; 125 g ai/ha, preemergence): 80
Plant response rating, Purslane (common purslane; Preemergence, 16 g ai/ha): 40
Plant response rating, Purslane (common purslane; Preemergence, 31 g ai/ha): 60
Goosegrass plant response rating (goosegrass; 62 g ai/ha, Preemergence): 98
Goosegrass plant response rating (goosegrass; 125 g ai/ha, preemergence): 100
Plant response rating, Goosegrass (goosegrass; Preemergence, 16 g ai/ha): 70
Plant response rating, Goosegrass (goosegrass; Preemergence, 31 g ai/ha): 90
Johnsongrass plant response rating (johnsongrass; 62 g ai/ha, Preemergence): 90
Johnsongrass plant response rating (johnsongrass; 125 g ai/ha, preemergence): 95
Plant response rating, Johnsongrass (johnsongrass; Preemergence, 16 g ai/ha): 70
Plant response rating, Johnsongrass (johnsongrass; Preemergence, 31 g ai/ha): 70
Surinam Grass plant response rating (Surinam grass; 62 g ai/ha, Preemergence): 100
Surinam Grass plant response rating (Surinam grass; 125 g ai/ha, preemergence): 100
Plant response rating, Surinam Grass (Surinam grass; Preemergence, 31 g ai/ha): 98
Morningglory plant response rating (pitted morningglory; 62 g ai/ha, Preemergence): 90
Morningglory plant response rating (pitted morningglory; 125 g ai/ha, preemergence): 100
Plant response rating, Morningglory (pitted morningglory; Preemergence, 16 g ai/ha): 0
Plant response rating, Morningglory (pitted morningglory; Preemergence, 31 g ai/ha): 30
Ragweed plant response rating (common ragweed; 62 g ai/ha, Preemergence): 75
Ragweed plant response rating (common ragweed; 125 g ai/ha, preemergence): 100
Plant response rating, Ragweed (common ragweed; Preemergence, 16 g ai/ha): 30
Plant response rating, Ragweed (common ragweed; Preemergence, 31 g ai/ha): 65

CCn1nc(C(F)(F)F)c(CS(=O)(=O)c2cc(C)cc[n+]2[O-])c1OCC(F)(F)F [Compound 64]
Plant response rating, Kochia (kochia; 16 g ai/ha, preemergence): 0
Kochia plant response rating (kochia; preemergence): 75
Plant response rating, Prickly Sida (prickly sida; 16 g ai/ha, preemergence): 0
Prickly Sida plant response rating (prickly sida; 62 g ai/ha, Preemergence): 30
Prickly Sida plant response rating (prickly sida; 125 g ai/ha, preemergence): 75
Plant response rating, Prickly Sida (prickly sida; Preemergence, 31 g ai/ha): 0
Plant response rating, Purple Nutsedge (purple nutsedge; 16 g ai/ha, preemergence): 20
Purple Nutsedge plant response rating (purple nutsedge; 62 g ai/ha, Preemergence): 50
Purple Nutsedge plant response rating (purple nutsedge; 125 g ai/ha, preemergence): 80
Plant response rating, Purple Nutsedge (purple nutsedge; Preemergence, 31 g ai/ha): 50
Plant response rating, Quackgrass (quackgrass; 16 g ai/ha, preemergence): 40
Quackgrass plant response rating (quackgrass; 62 g ai/ha, Preemergence): 95
Quackgrass plant response rating (quackgrass; 125 g ai/ha, preemergence): 95
Plant response rating, Quackgrass (quackgrass; Preemergence, 31 g ai/ha): 75
Plant response rating, Crabgrass, Naked (naked crabgrass; 16 g ai/ha, preemergence): 30
Crabgrass, Naked plant response rating (naked crabgrass; 62 g ai/ha, Preemergence): 100
Crabgrass, Naked plant response rating (naked crabgrass; 125 g ai/ha, preemergence): 100
Plant response rating, Crabgrass, Naked (naked crabgrass; Preemergence, 31 g ai/ha): 40
Plant response rating, Groundsel (common groundsel; 16 g ai/ha, preemergence): 0
Groundsel plant response rating (common groundsel; 62 g ai/ha, Preemergence): 15
Groundsel plant response rating (common groundsel; 125 g ai/ha, preemergence): 80
Plant response rating, Groundsel (common groundsel; Preemergence, 31 g ai/ha): 0
Plant response rating, Guineagrass (guineagrass; 16 g ai/ha, preemergence): 80
Guineagrass plant response rating (guineagrass; 62 g ai/ha, Preemergence): 100
Guineagrass plant response rating (guineagrass; 125 g ai/ha, preemergence): 100
Plant response rating, Guineagrass (guineagrass; Preemergence, 31 g ai/ha): 98
Plant response rating, Ryegrass, Italian (Italian ryegrass; 16 g ai/ha, preemergence): 0
Ryegrass, Italian plant response rating (Italian ryegrass; 125 g ai/ha, preemergence): 90
Plant response rating, Ryegrass, Italian (Italian ryegrass; Preemergence, 62 g ai/ha): 75
Plant response rating, Ryegrass, Italian (Italian ryegrass; Preemergence, 31 g ai/ha): 20
Plant response rating, Bermudagrass (bermudagrass; 16 g ai/ha, preemergence): 0
Bermudagrass plant response rating (bermudagrass; 62 g ai/ha, Preemergence): 75
Bermudagrass plant response rating (bermudagrass; 125 g ai/ha, preemergence): 90
Plant response rating, Bermudagrass (bermudagrass; Preemergence, 31 g ai/ha): 25
Plant response rating, Crabgrass, Large (large crabgrass; 16 g ai/ha, preemergence): 10
Crabgrass, Large plant response rating (large crabgrass; 62 g ai/ha, Preemergence): 75
Crabgrass, Large plant response rating (large crabgrass; 125 g ai/ha, preemergence): 95
Plant response rating, Crabgrass, Large (large crabgrass; Preemergence, 31 g ai/ha): 65
Plant response rating, Sandbur (southern sandbur; 16 g ai/ha, preemergence): 25
Sandbur plant response rating (southern sandbur; 125 g ai/ha, preemergence): 100
Plant response rating, Sandbur (southern sandbur; Preemergence, 62 g ai/ha): 80
Plant response rating, Sandbur (southern sandbur; Preemergence, 31 g ai/ha): 80
Plant response rating, Purslane (common purslane; 16 g ai/ha, preemergence): 0
Purslane plant response rating (common purslane; 62 g ai/ha, Preemergence): 30
Purslane plant response rating (common purslane; 125 g ai/ha, preemergence): 60
Plant response rating, Purslane (common purslane; Preemergence, 31 g ai/ha): 10
Plant response rating, Goosegrass (goosegrass; 16 g ai/ha, preemergence): 75
Goosegrass plant response rating (goosegrass; 62 g ai/ha, Preemergence): 90
Goosegrass plant response rating (goosegrass; 125 g ai/ha, preemergence): 98
Plant response rating, Goosegrass (goosegrass; Preemergence, 31 g ai/ha): 90
Plant response rating, Johnsongrass (johnsongrass; 16 g ai/ha, preemergence): 0
Johnsongrass plant response rating (johnsongrass; 62 g ai/ha, Preemergence): 90
Johnsongrass plant response rating (johnsongrass; 125 g ai/ha, preemergence): 100
Plant response rating, Johnsongrass (johnsongrass; Preemergence, 31 g ai/ha): 75
Plant response rating, Surinam Grass (Surinam grass; 16 g ai/ha, preemergence): 10
Surinam Grass plant response rating (Surinam grass; 125 g ai/ha, preemergence): 100
Plant response rating, Surinam Grass (Surinam grass; Preemergence, 62 g ai/ha): 95
Plant response rating, Surinam Grass (Surinam grass; Preemergence, 31 g ai/ha): 90
Plant response rating, Morningglory (pitted morningglory; 16 g ai/ha, preemergence): 0
Morningglory plant response rating (pitted morningglory; 62 g ai/ha, Preemergence): 0
Morningglory plant response rating (pitted morningglory; 125 g ai/ha, preemergence): 35
Plant response rating, Morningglory (pitted morningglory; Preemergence, 31 g ai/ha): 0
Plant response rating, Ragweed (common ragweed; 16 g ai/ha, preemergence): 0
Ragweed plant response rating (common ragweed; 125 g ai/ha, preemergence): 85
Plant response rating, Ragweed (common ragweed; Preemergence, 62 g ai/ha): 50
Plant response rating, Ragweed (common ragweed; Preemergence, 31 g ai/ha): 30
